# Measurements: patent publication US5532223A, “Use of aqueous soluble glucan preparations to stimulate platelet production” (priority 1995, dated 1996)
# Where two headings read alike, the source gives them in different places.
# What was measured:
# Human Monocytes = assay: TNF-α synthesis by human monocyte monolayers stimulated with glucan preparations (ELISA); assay type: cell-based; settings: for TNF-α / TNF-α Mean ± SD: glucan 1 mg/ml; for TNF-α Mean ± SD: Table 3; for TNF-α stimulation (in words): human monocytes, Tables 3 and 4
# Description: Human peripheral blood mononuclear cells were isolated (Janusz et al., (1987), J. Immunol., 138: 3897-3901) from normal citrated and dextran-treated blood, washed in Hank's balanced salts solution (HBSS), lacking calcium, magnesium, and phenol red, and purified by gradient centrifugation on cushions of Ficoll-Paque (Pharmacia Fine Chemicals, Piscataway, N.J.). The mononuclear cells were collected into HBSS, washed twice, resuspended in RPMI 1640 Medium (Gibco, Grand Island, N.Y.) containing 1% heat-inactivated autologous serum (56° C. for 30 min.), and counted on the Coulter counter.
# For the preparation of monocyte monolayers, 1 ml of 2.2×10^6 mononuclear cells/ml was plated into wells of 24-well tissue culture plates (CoStar, Cambridge, Mass.), incubated for 1 h at 37° C. in a humidified atmosphere of 5% CO2, and washed three times with RPMI to remove nonadherent cells. A second 1 ml aliquot of 2.2×10^6 mononuclear cells/ml was layered into each well and incubated for 2 hours as described above before removal of the nonadherent cells. By visual enumeration at 40× with an inverted phase microscope and a calibrated reticule, the number of adherent cells for 30 different donors was 0.77±0.20×10^6 per well (mean±SD). By morphology and nonspecific esterase staining, >95% of the adherent cells were monocytes.
# Monocyte monolayers were incubated at 37° C. in the CO2 chamber for 0 to 8 h with 0.5 ml of RPMI, 1% heat-inactivated autologous serum, 10 mM HEPES, and 5 mM MgCl2 in the absence and presence of various glucan preparations. The culture supernatant was removed, clarified by centrifugation at 14,000 g for 5 min at 4° C., and stored at -70° C. before assay of cytokines.
# The data are expressed as pg per 10^6 monocytes, which was calculated by dividing the quantity of cytokine in 0.5 ml of supernatant by the number of monocytes per well.
# [1] = test system: β-glucan receptor on human monocytes; assay: Avidity for the glucan receptor: inhibition of monocyte ingestion of zymosan particles; assay type: cell-based; settings: for % Inhibition of monocyte ingestion: mean of two experiments
# Description: Monolayers of human monocytes, prepared on siliconized glass coverslips (Czop et al., 1978, J. […] The monocyte monolayers were then washed twice with 50 ml of RPMI 1640 medium and were layered with 0.25 ml of 4.8×10^6 /ml zymosan particles (Czop and Austen, 1985, J. Immunol., 134:2588-2593). After a 30 minute incubation at 37° C., the monolayers were washed three times with 50 ml of Hank's balanced salt solution to remove noningested zymosan particles. The monolayer were then fixed and stained with Giemsa. The ingestion of zymosan particles by at least 300 monocytes per monolayer was determined by visual observation under a 1000× light microscope.
# The percent inhibition of monocyte ingestion was determined by subtracting the percentage of monocytes ingesting targets after pretreatment with the neutral soluble glucan from the percentage ingesting targets after pretreatment with buffer, dividing this number by the percentage ingesting targets after pretreatment with buffer and multiplying by 100.
# [2] = test system: Human Peripheral Blood Mononuclear Cells (IL-1β); assay: In vitro IL-1β synthesis by human peripheral blood mononuclear cells (radioimmunoassay), stimulation and priming; assay type: cell-based; settings: for IL-1β: 24 hours, mean of two donors
# Description: (§1) Venous blood was obtained from healthy male volunteers and mononuclear cells were fractionated by Ficoll-Hypaque centrifugation. The mononuclear cells were washed, resuspended in endotoxin-free RPMI-1640 culture medium ultrafiltered to remove endotoxins as described elsewhere (Dinarello et al., 1987, J. Clin. Microbiol. 25:1233-8) at a concentration of 5×10^6 cells/ml and were aliquoted into 96-well microtiter plates (Endres et al., 1989, N. E. J. Med. 320:265-271). The cells were then incubated with either 1 ng/ml endotoxin (lipopoly-saccharide, E. coli 055:B5, Sigma, St. Louis), or 10 to 1000 ng/ml PGG, at 37° C. for 24 hours in 5% CO2 and then lysed by three freeze-thaw cycles (Endres et al., 1989, N. E. J. Med. 320:265-271). Synthesis of IL-1β and TNFα were determined by specific radioimmunoassays as described elsewhere (Lisi et al., 1987, Lymph Res. 6:229-244; Lonnemann et al., 1988, Lymph. Res. 7:75-84; Van der Meer et al., 1988, J. Leukocycte Biol. 43:216-223.
# (§2) To determine if neutral soluble glucan could act as a priming agent for cytokine synthesis with endotoxin, a known cytokine stimulant, mononuclear cells were pre-incubated with 1, 10, and 1000 ng/ml underivatized, aqueous soluble β-glucan for 3 hours at 37° C. in 5% CO2. The cells were washed to remove neutral soluble glucan and were then incubated with 1 ng/ml endotoxin as described above. IL-1β and TNFα were determined as described above.
# [3] = test system: Human Peripheral Blood Mononuclear Cells (TNFα); assay: In vitro TNFα synthesis by human peripheral blood mononuclear cells (radioimmunoassay), stimulation and priming; assay type: cell-based; settings: for TNFα: 24 hours, mean of two donors
# Description: as §1, §2
# [4] = test system: polymicrobic infectious challenge (cecal inoculum); assay: Rat model for intra-abdominal sepsis; assay type: in vivo; settings: rats
# [5] = human, in vivo, iv
# Description: (§3) A randomized, double-blind, placebo-controlled clinical trial was conducted on healthy males to evaluate the safety of neutral soluble glucan (2.25 mg/kg) injected by intravenous infusion compared to a placebo control. […] The results are consistent with the in vitro data reported in the earlier examples.
# [6] = test system: IL-1, TNF, IL-6, IL-8 and GM-CSF; assay: Clinical trial in healthy males: serum cytokines; assay type: in vivo, human
# Description: as §3
# neutrophils = assay: Clinical trial in healthy males: absolute neutrophil counts; assay type: in vivo, human; settings: 2.5 mg/kg, N 6
# monocytes = assay: Clinical trial in healthy males: monocyte counts; assay type: in vivo, human; settings: 2.5 mg/kg, N 6
# [7] = test system: monocytes and neutrophils (killing activity); assay: Ex vivo microbicidal activity of normal volunteers; assay type: in vivo, human; settings: 2.5 mg/kg, normalized with respect to the saline control, N 6
# full thickness wounds = assay: Wound healing, full thickness wound in hairless mice; assay type: in vivo, mouse
# Description: Wound healing studies were performed on hairless mouse models having full thickness wounds with and without Staphylococcus aureus infection.
# Incisions were closed using steel clips at 1 cm intervals.
# […] Two micrograms of neutral soluble glucan/mouse per day was topically applied. Wounds were examined daily and rank-ordered for effectiveness of formulation for enhancement of visual based wound healing each day. Wounds were scored for closure on a scale of 0-5, with 5 indicating the most healing. In one group of mice that served as the infection model, the wound was treated with a culture of 10^7 Staphylococcus aureus 30 minutes after wounding and 2 hrs prior to treatment with the neutral soluble glucan formulation.
# Histological evaluation of the wound site of each test group was made. The dermis of the control group (untreated wound) was heavily infiltrated with both lymphocytes and monocytes/macrophages. However, re-epithelialization that occurred at the epidermal layer was incomplete.
# Staphylococcus aureus = assay: Wound healing, full thickness wound infected with Staphylococcus aureus in hairless mice; assay type: in vivo, mouse; settings: wound treated with 10^7 Staphylococcus aureus; topical
# Description: Wound healing studies were performed on hairless mouse models having full thickness wounds with and without Staphylococcus aureus infection. […] Incisions were closed using steel clips at 1 cm intervals. Formulations of neutral soluble glucan in phosphate buffered saline were applied 30 minutes following wounding and reapplied at 24 hour intervals during the seven day post-operative period. Two micrograms of neutral soluble glucan/mouse per day was topically applied. Wounds were examined daily and rank-ordered for effectiveness of formulation for enhancement of visual based wound healing each day. Wounds were scored for closure on a scale of 0-5, with 5 indicating the most healing. In one group of mice that served as the infection model, the wound was treated with a culture of 10^7 Staphylococcus aureus 30 minutes after wounding and 2 hrs prior to treatment with the neutral soluble glucan formulation.
# platelets = assay: Platelet count in irradiated mice; assay type: in vivo, mouse; settings: single IV bolus 20 hours prior to 7.5-Gy total-body irradiation, fourteen days after irradiation, FIG. 7
# Description: The platelet proliferation stimulatory effect of the neutral soluble glucan was tested in an animal model system following irradiation or administration of the chemotherapeutic agent cisplatin.
# More specifically, neutral soluble glucan prepared as described in Example 1 was administered to groups of 10 mice in a single IV bolus 20 hours prior to radiation exposure. Mice were bilaterally exposed to a total-body irradiation of 7.5-Gy. Fourteen days after irradiation the mice were sacrificed and whole blood samples were analyzed for peripheral blood counts.
# [8] = water
# [9] = pre-incubation 10-1000 ng/ml, then endotoxin as co-stimulant
# [10] = mice treated topically for three days, in phosphate buffered saline
substance,measurement,setting,value
poly-(1-6)-β-D-glucopyranosyl-(1-3)-β-D-glucopyranose [Neutral soluble glucan],TNF-α,"Human Monocytes; Table 3, column 1",44 pg/10^6 monocytes
same,TNF-α,"Human Monocytes; Table 3, column 2",51 pg/10^6 monocytes
same,TNF-α,"Human Monocytes; Table 3, column 3",33 pg/10^6 monocytes
same,TNF-α Mean ± SD,Human Monocytes,43 ± 9 pg/10^6 monocytes
same,TNF-α,Human Monocytes; Table 4,16 pg/10^6 monocytes
same,TNF-α stimulation (in words),Human Monocytes,no stimulation of TNF-α
same,receptor binding capacity (in words),[1]; 50 μg/ml and 500 μg/ml,higher receptor binding capacity than Peak B
same,% Inhibition of monocyte ingestion,[1]; 50 μg/ml,74%
same,% Inhibition of monocyte ingestion,[1]; 500 μg/ml,86%
same,priming of IL-1β synthesis compared to endotoxin alone (in words),[2]; [9],did not result in any amplification
same,IL-1β,[2]; stimulant 10 ng/ml,0.13 ng/mL
same,IL-1β,[2]; stimulant 100 ng/ml,0.12 ng/mL
same,IL-1β,[2]; stimulant 1000 ng/ml,< 0.10 ng/mL
same,IL-1β synthesis over control buffer treated cells (in words),[2]; used alone as stimulant,did not induce increased levels
same,priming of TNFα synthesis compared to endotoxin alone (in words),[3]; [9],did not result in any amplification
same,TNFα,[3]; stimulant 10 ng/ml,0.16 ng/mL
same,TNFα,[3]; stimulant 100 ng/ml,0.16 ng/mL
same,TNFα,[3]; stimulant 1000 ng/ml,0.14 ng/mL
same,TNFα synthesis over control buffer treated cells (in words),[3]; used alone as stimulant,did not induce increased levels
same,protection from lethal bacterial challenge (in words),[4],protects rats from lethal bacterial challenge
same,Mortality (dead/total),"[4]; 100 μg/0.2 ml intramuscularly 24 hours and 4 hours prior to challenge, P vs. Saline <0.01",2/10
same,fever or inflammatory reactions,[5],none of the patients experienced fever or inflammatory reactions
same,adverse effects,[5]; 2.25 mg/kg,No adverse effects were observed
same,"elevation in IL-1, TNF, IL-6, IL-8 and GM-CSF",[6]; 2.25 mg/kg intravenous infusion,no observed elevation
same,changes in serum IL-1 and TNF,"[6]; over time, FIGS. 5 and 6",no changes occurred
same,"Absolute Neutrophil Counts, Mean",neutrophils; B = Baseline measurement,4.11 × 1000/μl
same,"Absolute Neutrophil Counts, Mean",neutrophils; Hour 8,11.29 × 1000/μl
same,"Absolute Neutrophil Counts, Mean",neutrophils; Hour 12,8.18 × 1000/μl
same,"Absolute Neutrophil Counts, Mean",neutrophils; Hour 24,5.32 × 1000/μl
same,"Monocyte Counts, Mean",monocytes; B = Baseline measurement,0.24 × 1000/μl
same,"Monocyte Counts, Mean",monocytes; Hour 8,0.63 × 1000/μl
same,"Monocyte Counts, Mean",monocytes; Hour 12,0.67 × 1000/μl
same,"Monocyte Counts, Mean",monocytes; Hour 24,0.31 × 1000/μl
same,Mean Change in % Killing,[7]; Day 2,48.96%
same,Mean Change in % Killing,[7]; Day 3,39.22%
same,Mean Change in % Killing,[7]; Day 6,31.17%
same,Mean Change in % Killing,[7]; Hour 3,42.86%
same,Mean Change in % Killing,[7]; Hour 6,32.33%
same,Mean Change in % Killing,[7]; Hour 24,20.90%
same,histology of wounded tissue: cell infiltration,full thickness wounds; [10],heavy infiltration of macrophages and lymphocytes
same,histology of wounded tissue: tissue integrity,full thickness wounds; [10],Tissue integrity was good
same,wound healing (in words),"full thickness wounds; topically applied, two micrograms/mouse per day",accelerated wound healing within the dermal layer of the wound
same,infection of the wound (in words),Staphylococcus aureus,effectively eliminated infection
same,progression to sepsis (in words),Staphylococcus aureus,prevented the progression to sepsis
same,platelet cell count relative to saline treated control levels,platelets,~3 fold
same,aqueous solubility,[8],approximately 100 mg/ml
same,aqueous solubility,[8]; pH 13,~150 mg/mL
Laminarin [reference compound],TNF-α,"Human Monocytes; Table 3, column 1",372 pg/10^6 monocytes
same,TNF-α,"Human Monocytes; Table 3, column 2",324 pg/10^6 monocytes
same,TNF-α,"Human Monocytes; Table 3, column 3",227 pg/10^6 monocytes
same,TNF-α Mean ± SD,Human Monocytes,308 ± 74 pg/10^6 monocytes
same,TNF-α,Human Monocytes; Table 4,1312 pg/10^6 monocytes
same,TNF-α stimulation (in words),Human Monocytes,stimulated
